The results in this text go back to ChEMBL document CHEMBL1201862, “PubChem BioAssay data set” (2004).

Each structure is given as a SMILES string. Active and inactive are the calls of the source. Bounds are passed on as bounds.

Assay [1] addresses Heat shock protein HSP 90-alpha (Homo sapiens, UniProt P07900). It is filed as functional, organism-based.
The target in assay [2] is T1, COUP transcription factor 2 (Homo sapiens, UniProt P24468).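 Also: HEK293 cells transiently cotransfected with COUP-TFII expression vector and reporter; luciferase reporter luminescence driven by COUP-TFII from the pX2-168 reporter plasmid.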
T1 sequence (P24468 whole entry): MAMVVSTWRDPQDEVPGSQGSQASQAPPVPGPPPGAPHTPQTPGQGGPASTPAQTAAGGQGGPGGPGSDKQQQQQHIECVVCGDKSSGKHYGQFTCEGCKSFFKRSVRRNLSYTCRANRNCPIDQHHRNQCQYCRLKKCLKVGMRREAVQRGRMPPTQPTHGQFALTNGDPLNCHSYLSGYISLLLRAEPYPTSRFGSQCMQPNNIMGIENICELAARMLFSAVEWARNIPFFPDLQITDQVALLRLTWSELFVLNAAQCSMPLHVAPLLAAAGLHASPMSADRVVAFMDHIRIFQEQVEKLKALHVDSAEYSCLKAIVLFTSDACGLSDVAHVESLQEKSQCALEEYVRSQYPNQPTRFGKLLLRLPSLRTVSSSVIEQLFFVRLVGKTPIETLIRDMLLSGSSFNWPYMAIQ
The experiment in a line: Luminescence-based cell-based high throughput dose response assay to identify inhibitors of COUP-TFII (NR2F2). It is filed as functional.

The nature of assay [3]: Luminescence Cell-Based Dose Response HTS to Identify Inhibitors of 5'UTR Stem-Loop Driven Prion Protein mRNA Translation in H4 Neuroglioblastoma Cells. [Related pubchem assays: 1827 (Project Summary), 1813 (Primary HTS)]. It is filed as functional.
The target in another assay is Troponin, cardiac muscle (Homo sapiens, UniProt P19429+P45379+P63316). The experiment in a line: Fluorescence-based biochemical high throughput dose response assay for activators of the calcium sensitivity of cardiac Regulated Thin Filaments (RTF). [Related pubchem assays (depositor defined):AID493008, AID493018, AID504382, AID504383]. It is filed as protein-complex assay.

Assay [4] addresses T2, Calpain-2 catalytic subunit (Sus scrofa, UniProt P43367).
T2 sequence (P43367 whole entry): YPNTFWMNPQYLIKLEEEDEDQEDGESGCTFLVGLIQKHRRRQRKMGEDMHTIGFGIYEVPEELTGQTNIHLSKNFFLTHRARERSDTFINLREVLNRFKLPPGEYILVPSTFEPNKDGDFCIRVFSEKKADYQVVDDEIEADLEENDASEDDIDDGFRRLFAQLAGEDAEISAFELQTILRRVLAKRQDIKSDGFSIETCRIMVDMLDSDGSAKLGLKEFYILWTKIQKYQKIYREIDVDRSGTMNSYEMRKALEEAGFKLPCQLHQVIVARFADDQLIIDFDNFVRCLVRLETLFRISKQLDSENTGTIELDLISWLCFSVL
The experiment in a line: m-calpain protease blockers, concentration series – biochemical, fluorogenic peptide substrate, dose response (AID 1420). It is filed as functional.

A short description of assay [5]: HEK-293T viability loss, compound-treated – cell-based, uHTS hits, cytotoxicity control for B/T-cell NF-kB inhibitor project, dose response (AID 489019).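 Also: IC50 reflects cytotoxicity as loss of cell viability.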 It is filed as functional.
The target of assay [6] is T3, Rac GTPase-activating protein 1 (Homo sapiens, UniProt Q9H0H5).
T3 sequence (Q9H0H5 whole entry): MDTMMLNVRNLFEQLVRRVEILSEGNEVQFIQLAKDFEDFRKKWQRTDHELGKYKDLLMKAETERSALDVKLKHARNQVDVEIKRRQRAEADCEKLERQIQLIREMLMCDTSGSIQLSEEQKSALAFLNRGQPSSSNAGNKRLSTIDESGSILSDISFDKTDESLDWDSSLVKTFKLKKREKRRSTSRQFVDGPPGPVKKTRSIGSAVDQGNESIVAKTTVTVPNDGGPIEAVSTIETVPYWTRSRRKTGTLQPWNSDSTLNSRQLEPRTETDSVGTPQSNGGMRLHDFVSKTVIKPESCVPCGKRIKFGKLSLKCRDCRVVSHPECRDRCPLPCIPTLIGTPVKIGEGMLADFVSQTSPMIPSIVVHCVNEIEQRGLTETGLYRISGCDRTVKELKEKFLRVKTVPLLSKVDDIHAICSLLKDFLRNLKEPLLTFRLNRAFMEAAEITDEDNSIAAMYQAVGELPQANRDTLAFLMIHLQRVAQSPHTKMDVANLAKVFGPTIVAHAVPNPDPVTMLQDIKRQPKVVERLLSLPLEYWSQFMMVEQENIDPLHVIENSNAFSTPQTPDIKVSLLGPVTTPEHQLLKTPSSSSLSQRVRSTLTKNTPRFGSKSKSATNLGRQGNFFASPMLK
The experiment in a line: blockers of MgcRacGAP-driven Rac1 GTP hydrolysis – biochemical, ADP Hunter fluorescence, primary and confirmatory, confirmation (AID 624330). It is filed as functional.

A short description of assay [7]: cells. It is filed as functional, cell-based.
The test system of a further assay is Jurkat. The experiment in a line: blockers of NF-kB activation in T cells – Jurkat, luciferase reporter, luminescence, B- and T-cell, dose response (AID 489004).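 Also: NF-kB luciferase reporter Jurkat cells stimulated with PMA plus ionomycin.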 The conditions noted are these: Homo sapiens. It is filed as functional, cell-based.
Assay [8] is described as follows: microbe, parasite or virus in culture. It is filed as functional. The following applies: Mycobacterium tuberculosis.
Assay [9] can be described thus: cells. It is filed as functional, cell-based. The source holds these as a separate data set.
The nature of assay [10]: viability loss in HeLa cells – cytotoxicity control for MgcRacGAP inhibitor project, dose response (AID 624300). It is filed as functional.
For a further assay, the system named is HEK293. The experiment in a line: cells. It is filed as functional, cell-based. The conditions noted are these: Homo sapiens.
For assay [11], the target named is T4, Nuclear receptor subfamily 0 group B member 1 (Homo sapiens, UniProt P51843).
T4 sequence (P51843 whole entry): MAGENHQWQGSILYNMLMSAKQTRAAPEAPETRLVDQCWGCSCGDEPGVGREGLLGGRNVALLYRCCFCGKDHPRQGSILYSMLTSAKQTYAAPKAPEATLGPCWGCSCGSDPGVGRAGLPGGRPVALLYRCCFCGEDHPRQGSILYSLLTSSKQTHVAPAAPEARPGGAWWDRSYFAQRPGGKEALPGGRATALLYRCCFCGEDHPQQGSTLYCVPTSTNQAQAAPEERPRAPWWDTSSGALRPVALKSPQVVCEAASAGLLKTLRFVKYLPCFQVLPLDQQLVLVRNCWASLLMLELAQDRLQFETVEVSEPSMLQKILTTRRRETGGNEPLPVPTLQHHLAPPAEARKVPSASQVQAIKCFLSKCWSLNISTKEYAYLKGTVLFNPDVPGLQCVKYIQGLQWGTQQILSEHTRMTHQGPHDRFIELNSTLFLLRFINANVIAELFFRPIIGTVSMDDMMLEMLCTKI
The experiment in a line: Luminescence-based cell-based high throughput dose response assay for inhibitors of the orphan nuclear receptor subfamily 0, group B, member 1 (DAX1; NR0B1). [Related pubchem assays (depositor defined):AID504766, AID504790]. It is filed as functional.

Another assay concerns the target Trypsin (Sus scrofa, UniProt P00761). The experiment in a line: trypsin protease activity blockade – biochemical, quenched peptide fluorescence, cherry-pick, selectivity assay for Rce1 protease inhibitor project, dose response (AID 488789).
In assay [12] the target is T5, CAAX prenyl protease 2 (Saccharomyces cerevisiae S288c, UniProt Q03530).
T5 sequence (Q03530 whole entry): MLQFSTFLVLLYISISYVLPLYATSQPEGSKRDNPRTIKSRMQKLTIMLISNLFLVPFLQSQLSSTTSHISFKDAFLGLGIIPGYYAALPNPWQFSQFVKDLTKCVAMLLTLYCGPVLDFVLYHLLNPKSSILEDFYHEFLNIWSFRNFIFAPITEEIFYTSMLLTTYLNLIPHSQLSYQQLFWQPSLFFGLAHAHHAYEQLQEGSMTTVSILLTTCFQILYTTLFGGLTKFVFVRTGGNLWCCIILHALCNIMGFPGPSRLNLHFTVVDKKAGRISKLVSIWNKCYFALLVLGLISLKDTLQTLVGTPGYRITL
It is filed as biochemical.

Assay [13] deals with T6, CAAX prenyl protease 2 (Homo sapiens, UniProt Q9Y256).
T6 sequence (Q9Y256 whole entry): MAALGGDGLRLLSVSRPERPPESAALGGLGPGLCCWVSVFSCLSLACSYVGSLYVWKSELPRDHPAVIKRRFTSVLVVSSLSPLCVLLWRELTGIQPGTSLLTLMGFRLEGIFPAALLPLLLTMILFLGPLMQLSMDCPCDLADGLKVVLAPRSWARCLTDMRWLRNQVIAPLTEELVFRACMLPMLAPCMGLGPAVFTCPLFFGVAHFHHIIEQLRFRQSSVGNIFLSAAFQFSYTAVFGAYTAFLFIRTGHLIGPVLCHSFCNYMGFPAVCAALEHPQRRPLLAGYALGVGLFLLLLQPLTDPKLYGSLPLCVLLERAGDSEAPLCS
The experiment in a line: inhibition of Ras-converting CAAX protease Rce1 – biochemical, yeast membranes, quenched-peptide fluorescence, cherry-pick, dose response (AID 588849).

Trypsin, sequence (P00761 whole entry): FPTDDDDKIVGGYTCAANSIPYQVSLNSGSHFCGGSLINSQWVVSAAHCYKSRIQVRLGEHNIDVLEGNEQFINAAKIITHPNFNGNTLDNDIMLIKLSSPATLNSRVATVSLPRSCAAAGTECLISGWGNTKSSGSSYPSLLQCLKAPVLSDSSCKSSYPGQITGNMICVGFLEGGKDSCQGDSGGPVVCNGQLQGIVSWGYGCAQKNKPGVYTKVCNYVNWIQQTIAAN

For orientation: AC50 means the concentration at which the activity in the assay is half-maximal. What is called IC50 is the point on the concentration scale where inhibition reaches its midpoint. Usually EC50 stands for the concentration giving half of the maximal effect. On to `CCN1/C(=C/c2ccc3cc(C)ccc3[n+]2CC)Sc2ccccc21`, for which the AC50 in assay [1] is 7.73 µM (active). The IC50 in [2] is 1.55 µM (active); in assay [4] it was 16.4 µM (not active); in assay [5], > 80 µM (inactive); in [6], 59.5 µM (active); in the assay with Jurkat, 2.6 µM (active). Also, the EC50 in [3] is > 120 µM (not active); on Troponin, cardiac muscle, 10.4 µM (inactive); in “cells [7]” it was > 350 µM (not active); in the assay “cells [9]”, > 350 µM (not active). For the same molecule, the CC50 in assay [8] is 1.92 µM (active); in assay [10], 12.5 µM (active).

Turning to `COc1ccc(C2SCC(C(=O)O)N2C(C)=O)cc1OC` (configuration not stated), the IC50 (in the assay with HEK293; in assay [11]) was > 67.5 µM (inactive) each time.

In the case of `Nc1c(C(=O)NCCN2CCOCC2)c2nc3ccccc3nc2n1-c1cccc(F)c1`, the AC50 is 12.4 µM (active) on Trypsin, 15 µM (active) at CAAX prenyl protease 2 [12] and 5.43 µM (active) at CAAX prenyl protease 2 [13].

For the molecule `Cc1cc(NC(=O)CSc2nc(N)c(NC(=O)c3ccco3)c(O)n2)no1`, the IC50 (in the assay on HEK293; in assay [11]) was > 67.6 µM (inactive) each time.

As for `CC(=O)NN1C(=O)c2ccccc2NC1c1ccccc1` (configuration not stated), the AC50 on CAAX prenyl protease 2 [13] is > 100 µM (inactive).

For the molecule `Cc1ccc(CN2CCN(/N=C/c3ccccc3)CC2)cc1`, the IC50 (in the assay with HEK293; in assay [11]) was > 67.6 µM (inactive) in each case.
